{"source": "patent US7981878B2", "about": "“Tumor treatment with gliotoxin derivatives” (priority 2005, dated 2011)", "key": {"[1]": {"system": "cultures from animal cells", "conditions": "cited from earlier work"}, "B-CLL cells": {"system": "B-CLL cells", "assay": "Apoptosis of B-CLL cells by FACS (Probidium iodide/annexinV)", "format": "cell-based, human", "conditions": "for apoptosis: 0.2 μM gliotoxin, 4 hours", "procedure": "FIG. 3: Gliotoxin is a potent Notch2 trans-activation inhibitor in B-CLL cells. (A) EMSA showing the inhibition of DNA-bound Notch2IC complexes in the presence of 0.2 μg Gliotoxin. B-CLL samples (n=10) were cultured in the presence of 1 ng/ml TPA with or without 0.2 μM Gliotoxin for 24 hours. Nuclear extracts were subjected to EMSA using a oligonucleotide probe spanning a well defined CBF1/NotchIC binding site derived from the CD23a promoter. (B). Corresponding FACS analysis (plus 10 additional B-CLL samples) showing the downregulation of the Notch2 target gene CD23 as well as the induction of apoptosis of Gliotoxin treated B-CLL samples. Columnes represent the percentage of CD19^+CD23^+ (grey bars) and apoptotic cells (black bars: including early apoptotic cells single positive for AnnexinV, and late apoptotic cells double positive for AnnexinV and probidium iodide), respectively.\n(§1) FIG. 4: Gliotoxin induces apoptosis in unstimulated as well as in TPA-stimulated B-CLL cells within 4 hours. Normal PBMCs (peripheral blood mononuclear cells) from healthy donors show a markedly lower Notch2 activity. Although gliotoxin inhibits Notch2 also in normal, TPA-stimulated cells, the gliotoxin-caused apoptosis rate is markedly lower in normal cells as compared to B-CLL cells. Non-stimulated and TPA stimulated PBMC's from healthy donors (HD) are less sensitive to 0.2 μM Gliotoxin despite a basal Notch2 activity. PBMC's and CLL cells were incubated with 0.2 μM Gliotoxin with or without TPA for 4 hours and the Notch2 activity as well as the percentage of apoptotic cells were determined by EMSA and FACS analysis, respectively.\nAs drug screening model, a cell culture system was established which conserves the phenotype of freshly isolated B-CLL cells (3×10^6 B-CLL cells/ml RPMI medium+10% FCS, supplemented with 1 ng/ml of TPA). Notch2 activity in the cell nucleus is determined by means of EMSA (electrophoretic mobility shift assay) experiments, and the cell viability (Probidium iodide/annexinV) and CD23 expression (Notch2 target gene) is determined by means of FACS (flow cytometry) analyses, respectively.\nB-CLL cells were cultured for 24 h in the presence of 0.2 μM/ml of gliotoxin. This treatment led to a dramatic loss of the transcriptional Notch2 activity, as shown in the following representative EMSA (FIG. 3).\n(§2) After 4 hours of gliotoxin treatment, massive signs of the starting apoptosis (AnnexinV+) could already be recognized in B-CLL cells. This effect was increased by TPA (a phorbol ester which stimulates the activation of lymphocytes)."}, "[2]": {"system": "SNU398 (hepatocellular carcinoma)", "assay": "Cell count analysis SNU398", "format": "cell-based, human", "procedure": "(§3) FIG. 8 a-d: Effects of gliotoxin on cell counts of various human tumour cell lines in vitro. Cell counts of a) hepatocellular carcinoma cell lines HepG2, Huh7, SNU398, Hep3b, HeLa (cervix) and the cholangiocarcinoma cell line NEC as well as b) the pancreatic cancer cell line Panc-1 and the melanoma cell lines d) MelJuso, Meljuso-Bcl-2 (+) and 607B after 72 h treatment with 200 nM gliotoxin; c-d) Cell count dose range experiments with c) pancreatic carcinoma cell lines Panc-1 and MiaPaCa as well as melanoma cell lines MelJuso, 518A2 and 607B using 25, 50 100 and 200 nM gliotoxin for 24 h. All data are given relative to control ±standard deviation.\n(§4) Tumour cells were seeded at a density of 10,000 cells/well in 24-well plates. 24 h after seeding, medium containing gliotoxin was added to yield desired concentrations of gliotoxin. At time points indicated, culture medium was removed by suction. Adherent cells were washed with DPBS (Cambrex, Verviers, Belgium) and incubated with trypsin (Gibco) at 37° C. Detached cells were transferred to test tubes containing Cellpack isotonic fluid (Sysmex Europe, Bornbarch, Germany) and counted with a Coulter Z1 electronic cell counter (Beckman Coulter, Bedford, UK)."}, "518A2 (melanoma)": {"system": "518A2 (melanoma)", "assay": "Cell count analysis 518A2", "format": "cell-based, human", "procedure": "as §3, §4"}, "[3]": {"system": "SH1 (hairy cell carcinoma)", "assay": "Apoptosis FACS in leukaemia cell line SH1", "format": "cell-based", "conditions": "SH1, 0.2 μM gliotoxin, 24 h", "procedure": "(§5) FIG. 7: (A) The apoptotic activity of gliotoxin on further B-CLL patient samples (CLL4-CLL8) is illustrated. The (non-Notch2-associated) leukaemia cell lines (or the leukaemia cell lines not characterised by ligand-independent Notch2 fragments) Jurkat (T-ALL), SH1 (hairy cell carcinoma), RL-7 and K562 (CML) are resistant to a treatment with 0.2 μM (corresponding to 60 ng/ml) of gliotoxin. Cells were incubated for 24 h+/−gliotoxin, and the percentage of apoptotic cells (probidium-iodide+/annexinV+) was determined by means of FACS analysis. In none of the 4 non-Notch2-associated cell lines indicated, the application of 0.2 μM of gliotoxin led to a significant induction of apoptosis within 24 hours. The cytotoxic effect of Gliotoxin correlates with the Notch2 activity in leukemias. (B) Corresponding EMSA showing the activity of Notch2 in B-CLL cells and in leukemic cell lines (Jurkat, SH1, RL7, and K562)."}, "RL-7": {"system": "RL-7", "assay": "Apoptosis FACS in leukaemia cell line RL-7", "format": "cell-based", "conditions": "RL-7, 0.2 μM gliotoxin, 24 h", "procedure": "as §5"}, "[4]": {"system": "Nec (cholangiocellular carcinoma)", "assay": "Cell count analysis Nec", "format": "cell-based, human", "conditions": "200 nM gliotoxin, 72 h", "procedure": "as §3, §4"}, "[5]": {"system": "PBMCs from healthy donors", "assay": "Apoptosis of control PBMCs from healthy donors by FACS", "format": "cell-based, human", "conditions": "0.2 μM gliotoxin, 4 hours", "procedure": "as §1, §2"}, "[6]": {"system": "MiaPaCa (pancreas carcinoma)", "assay": "Cell count analysis MiaPaCa", "format": "cell-based, human", "conditions": "MiaPaCa, 25, 50, 100 and 200 nM, 24 h", "procedure": "as §3, §4"}, "[7]": {"system": "HepG2 (hepatocellular carcinoma)", "assay": "Cell count analysis HepG2", "format": "cell-based, human", "conditions": "HepG2, 200 nM gliotoxin, 72 h", "procedure": "as §3, §4"}, "Meljuso-wt (melanoma)": {"system": "Meljuso-wt (melanoma)", "assay": "Cell count analysis Meljuso-wt", "format": "cell-based, human", "procedure": "as §3, §4"}, "Jurkat (T-ALL)": {"system": "Jurkat (T-ALL)", "assay": "Apoptosis FACS in leukaemia cell line Jurkat", "format": "cell-based", "conditions": "0.2 μM gliotoxin, 24 h", "procedure": "as §5"}, "[8]": {"conditions": "mice and rats; cited from earlier work"}}}
{"smiles": "CN1C(=O)[C@]23CC4=CC=C[C@H](O)[C@H]4N2C(=O)[C@@]1(CO)SS3", "note": "[gliotoxin, [3R-(3α,5aβ,6β,10aα)]-2,3,5a,6-tetrahydro-6-hydroxy-3-(hydroxymethyl)-2-methyl-10H-3,10a-epi-dithiopyrazino[1,2-a]indol-1,4-dion]", "values": [{"measurement": "concentration at which the effect changes towards necrosis", "setting": "[1]", "result": "more than 10 μM"}, {"measurement": "concentration for complete necrosis of the cell cultures", "setting": "[1]", "result": "≥ 50", "unit": "µM"}, {"measurement": "mean value of apoptosis", "setting": "B-CLL cells; B-CLL cells cultured 24 h with 0.2 μM gliotoxin, n=10", "result": 73, "unit": "%"}, {"measurement": "response", "setting": "B-CLL cells; B-CLL-cases, 0.2 μM (60 ng/ml)", "result": "~100", "unit": "%"}, {"measurement": "apoptosis", "setting": "B-CLL cells; TPA-stimulated B-CLL cells", "result": 73, "unit": "%"}, {"measurement": "apoptosis", "setting": "B-CLL cells; non-stimulated B-CLL cells", "result": 54, "unit": "%"}, {"measurement": "mean reduction of cell numbers compared to vehicle treated controls", "setting": "[2]; SNU398, 200 nM gliotoxin, 72 h", "result": 96, "unit": "%"}, {"measurement": "response", "setting": "[2]; SNU-398, 0.2 μM (60 ng/ml)", "result": "~100", "unit": "%"}, {"measurement": "effect on cell count", "setting": "518A2 (melanoma); 518A2, 200 nM gliotoxin, 72 h", "result": "very effective"}, {"measurement": "cytotoxicity in dose range experiment (cell count)", "setting": "518A2 (melanoma); 518A2, 25, 50, 100 and 200 nM, 24 h", "result": "clear dose dependent cytotoxicity"}, {"measurement": "induction of apoptosis (probidium-iodide+/annexinV+)", "setting": "[3]", "result": "resistant"}, {"measurement": "induction of apoptosis (probidium-iodide+/annexinV+)", "setting": "RL-7", "result": "resistant"}, {"measurement": "mean reduction of cell numbers compared to vehicle treated controls", "setting": "[4]", "result": 93, "unit": "%"}, {"measurement": "apoptosis", "setting": "[5]; TPA-stimulated PBMCs", "result": 17, "unit": "%"}, {"measurement": "apoptosis", "setting": "[5]; non-stimulated PBMCs", "result": 20, "unit": "%"}, {"measurement": "cytotoxicity in dose range experiment (cell count)", "setting": "[6]", "result": "clear dose dependent cytotoxicity"}, {"measurement": "mean reduction of cell numbers compared to vehicle treated controls", "setting": "[7]", "result": 67, "unit": "%"}, {"measurement": "response", "setting": "Meljuso-wt (melanoma); MelJuso (−BCL2), 0.2 μM (60 ng/ml)", "result": "~100", "unit": "%"}, {"measurement": "cytotoxicity in dose range experiment (cell count)", "setting": "Meljuso-wt (melanoma); Meljuso, 25, 50, 100 and 200 nM, 24 h", "result": "clear dose dependent cytotoxicity"}, {"measurement": "effect on cell count", "setting": "Meljuso-wt (melanoma); Meljuso-wt, 200 nM gliotoxin, 72 h", "result": "very effective"}, {"measurement": "induction of apoptosis (probidium-iodide+/annexinV+)", "setting": "Jurkat (T-ALL)", "result": "resistant"}, {"measurement": "LD50", "setting": "[8]", "result": "25 to 50", "unit": "mg/kg"}]}
